Experimental data: PubChem BioAssay AID1845195 (Molecular Pharmacology Branch, DTP, NCI, 2023)

Tested on: 156681-154-R-J1 tumor spheroid viability
Experiment: Anticancer human tumor 156681-154-R-J1 patient-derived melanoma cell line growth inhibition
Settings: spheroids with HUVEC and MSC; for IC50: curve of first compound; for viability, T/C: stronger effect = lower value
Method in brief: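 Single agents and combinations were tested on spheroids built from tumor cells plus HUVEC and hMSC, at half-log dilutions starting at or near clinical Cmax, else 10 microM; final DMSO 0.25% (v/v).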

[1] = second compound 0.003 µM, first compound 0.0316 µM
[2] = second compound 0.003 µM, first compound 0.1 µM
[3] = second compound 0.003 µM, first compound 0.316 µM
[4] = second compound 0.003 µM, first compound 1 µM
[5] = second compound 0.003 µM, first compound 3.16 µM
[6] = second compound 0.003 µM, first compound 10 µM
[7] = second compound 0.00949 µM, first compound 0.0316 µM
[8] = second compound 0.00949 µM, first compound 0.1 µM
[9] = second compound 0.00949 µM, first compound 0.316 µM
[10] = second compound 0.00949 µM, first compound 1 µM
[11] = second compound 0.00949 µM, first compound 3.16 µM
[12] = second compound 0.00949 µM, first compound 10 µM
[13] = second compound 0.03 µM, first compound 0.0316 µM
[14] = second compound 0.03 µM, first compound 0.1 µM
[15] = second compound 0.03 µM, first compound 0.316 µM
[16] = second compound 0.03 µM, first compound 1 µM
[17] = second compound 0.03 µM, first compound 3.16 µM
[18] = second compound 0.03 µM, first compound 10 µM
[19] = second compound 0.0949 µM, first compound 0.0316 µM
[20] = second compound 0.0949 µM, first compound 0.1 µM
[21] = second compound 0.0949 µM, first compound 0.316 µM
[22] = second compound 0.0949 µM, first compound 1 µM
[23] = second compound 0.0949 µM, first compound 3.16 µM
[24] = second compound 0.0949 µM, first compound 10 µM
[25] = second compound 0.3 µM, first compound 0.0316 µM
[26] = second compound 0.3 µM, first compound 0.1 µM
[27] = second compound 0.3 µM, first compound 0.316 µM
[28] = second compound 0.3 µM, first compound 1 µM
[29] = second compound 0.3 µM, first compound 3.16 µM
[30] = second compound 0.3 µM, first compound 10 µM
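Also: spheroids exposed to compounds for 7 days before readout.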
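For viability, T/C in this document: percent of vehicle control viability where 100% = DMSO-treated spheroids.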

CC1COCCN1c1cc(-c2ccnn2C)c2ccnc(-c3ccn[nH]3)c2n1 (stereo not given) + CC[C@@]1(O)C(=O)OCc2c1cc1n(c2=O)Cc2cc3c(CN(C)C)c(O)ccc3nc2-1
IC50 (second compound 0.003 µM): 175 nM | IC50 (second compound 0.00949 µM): 194 nM | IC50 (second compound 0.03 µM): 52.4 nM | IC50 (second compound 0.0949 µM): < 31.6 nM | IC50 (second compound 0.3 µM): < 31.6 nM | viability, T/C [1]: 83.5% | viability, T/C [2]: 62.5% | viability, T/C [3]: 36.7% | viability, T/C [4]: 27.1% | viability, T/C [5]: 26.7% | viability, T/C [6]: 23.9% | viability, T/C [7]: 60.7% | viability, T/C [8]: 66.5% | viability, T/C [9]: 39.9% | viability, T/C [10]: 31.9% | viability, T/C [11]: 29.6% | viability, T/C [12]: 23.6% | viability, T/C [13]: 55.2% | viability, T/C [14]: 44.8% | viability, T/C [15]: 32.8% | viability, T/C [16]: 28.5% | viability, T/C [17]: 27.4% | viability, T/C [18]: 23.5% | viability, T/C [19]: 26.3% | viability, T/C [20]: 26.6% | viability, T/C [21]: 28.3% | viability, T/C [22]: 27.5% | viability, T/C [23]: 26.7% | viability, T/C [24]: 21.1% | viability, T/C [25]: 35.2% | viability, T/C [26]: 34.3% | viability, T/C [27]: 39.6% | viability, T/C [28]: 37.2% | viability, T/C [29]: 29.6% | viability, T/C [30]: 27.6%

COc1cc(C)[nH]c(=O)c1CN1CCc2c(Cl)cc(C(OC)C3COC3)c(Cl)c2C1=O (stereo not given) + CC[C@@]1(O)C(=O)OCc2c1cc1n(c2=O)Cc2cc3c(CN(C)C)c(O)ccc3nc2-1
IC50 (second compound 0.003 µM): > 10000 nM | IC50 (second compound 0.00949 µM): > 10000 nM | IC50 (second compound 0.03 µM): > 10000 nM | IC50 (second compound 0.0949 µM): < 31.6 nM | IC50 (second compound 0.3 µM): < 31.6 nM | viability, T/C [1]: 106% | viability, T/C [2]: 93.3% | viability, T/C [3]: 120% | viability, T/C [4]: 99% | viability, T/C [5]: 95.3% | viability, T/C [6]: 96.8% | viability, T/C [7]: 105% | viability, T/C [8]: 83.2% | viability, T/C [9]: 91.6% | viability, T/C [10]: 88.7% | viability, T/C [11]: 84.7% | viability, T/C [12]: 92.3% | viability, T/C [13]: 80.4% | viability, T/C [14]: 71.1% | viability, T/C [15]: 77% | viability, T/C [16]: 86.3% | viability, T/C [17]: 77.7% | viability, T/C [18]: 84.9% | viability, T/C [19]: 28.8% | viability, T/C [20]: 31.6% | viability, T/C [21]: 34.6% | viability, T/C [22]: 32.3% | viability, T/C [23]: 32.5% | viability, T/C [24]: 49.5% | viability, T/C [25]: 38.6% | viability, T/C [26]: 42.4% | viability, T/C [27]: 38.1% | viability, T/C [28]: 39.4% | viability, T/C [29]: 40.1% | viability, T/C [30]: 38.2%
